In patent US12384808B2, “Modulators of TNF-α activity” (Forward Therapeutics, Inc., priority 2022, dated 2025):

Target: TNFα (Homo sapiens, UniProt P01375)
Assay: TNFα Induced HEK Blue Cellular Assay
Format: cell-based
Details: HEK Blue TNFα reporter cells, TNFα 100 pg/ml, 24 hrs at 37° C., secreted alkaline phosphatase (QUANTI-Blue) read at 620 nm; read-out: IC50 value
In short: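 Reporter cells (10,000/well, DMEM + 10% FBS) with compound (final […] to 0.5 nM) stimulated with 100 pg/ml TNFα, 24 h at 37 °C, 5% CO2. Secreted alkaline phosphatase read at 620 nm; IC50 by 4-parameter logistic fit after background correction against stimulated/unstimulated DMSO controls.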

TNFα, sequence (P01375 77-233 limits assumed): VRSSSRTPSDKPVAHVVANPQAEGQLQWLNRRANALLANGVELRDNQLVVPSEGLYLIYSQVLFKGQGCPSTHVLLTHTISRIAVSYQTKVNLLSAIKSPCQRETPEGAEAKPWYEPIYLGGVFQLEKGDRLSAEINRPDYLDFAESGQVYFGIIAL

Row | Compound | IC50 [nM]
1 | CP(C)(=O)c1ccc(-c2ccc3nc4n(c3c2)[C@@H]2C[C@H]4N(C3CC3)C(=O)c3cccc(OC(F)F)c32)cc1F [Example 48, (1R,11R)-12-cyclopropyl-18-(difluoromethoxy)-5-[4-(dimethylphosphoryl)-3-fluorophenyl]-2,9,12-triazapentacyclo[9.8.1.0^{2,10}.0^{3,8}.0^{14,19}]icosa-3(8),4,6,9,14(19),15,17-heptaen-13-one] | < 100
2 | CCN1C(=O)c2cccc(OC(F)F)c2[C@H]2C[C@@H]1c1nc3ccc(-c4ccc(P(C)(C)=O)cc4)cc3n12 [Example 49, (1R,11R)-18-(difluoromethoxy)-5-[4-(dimethylphosphoryl)phenyl]-12-ethyl-2,9,12-triazapentacyclo[9.8.1.0^{2,10}.0^{3,8}.0^{14,19}]icosa-3(8),4,6,9,14(19),15,17-heptaen-13-one] | < 100
3 | CN1C(=O)c2cccc(OC(F)F)c2[C@H]2C[C@@H]1c1nc3ccc(-c4ccc(NP(C)(C)=O)cc4)cc3n12 [Example 50, (1R,11R)-18-(difluoromethoxy)-5-{4-[(dimethylphosphoryl)amino]phenyl}-12-methyl-2,9,12-triazapentacyclo[9.8.1.0^{2,10}.0^{3,8}.0^{14,19}]icosa-3(8),4,6,9,14(19),15,17-heptaen-13-one] | < 100
4 | CCP(=O)(CC)c1ccc(-c2ccc3nc4n(c3c2)[C@@H]2C[C@H]4NC(=O)c3cccc(OC(F)F)c32)cc1F [Example 51, (1R,11R)-5-[4-(diethylphosphoryl)-3-fluorophenyl]-18-(difluoromethoxy)-2,9,12-triazapentacyclo[9.8.1.0^{2,10}.0^{3,8}.0^{14,19}]icosa-3(8),4,6,9,14(19),15,17-heptaen-13-one] | < 100
5 | [2H]C([2H])([2H])N1C(=O)c2cccc(OC(F)F)c2[C@H]2C[C@@H]1c1nc3ccc(-c4ccc(P(C)(C)=O)c(F)c4F)cc3n12 [Example 52, (7R,14R)-1-(difluoromethoxy)-11-(4-(dimethylphosphoryl)-2,3-difluorophenyl)-6-(methyl-d3)-6,7-dihydro-7,14-methanobenzo[f]benzo[4,5]imidazo[1,2-a][1,4]diazocin-5(14H)-one] | < 100
6 | [2H]C([2H])([2H])N1C(=O)c2cccc(OC(F)F)c2[C@H]2C[C@@H]1c1nc3ccc(-c4ccc(P(C)(C)=O)cc4F)cc3n12 [Example 53, (7R,14R)-1-(difluoromethoxy)-11-(4-(dimethylphosphoryl)-2-fluorophenyl)-6-(methyl-d3)-6,7-dihydro-7,14-methanobenzo[f]benzo[4,5]imidazo[1,2-a][1,4]diazocin-5(14H)-one] | < 100
7 | [2H]C([2H])([2H])N1C(=O)c2cccc(OC(F)F)c2[C@H]2C[C@@H]1c1nc3ccc(-c4cc(F)c(P(C)(C)=O)cc4F)cc3n12 [Example 54, (7R,14R)-1-(difluoromethoxy)-11-(4-(dimethylphosphoryl)-2,5-difluorophenyl)-6-(methyl-d3)-6,7-dihydro-7,14-methanobenzo[f]benzo[4,5]imidazo[1,2-a][1,4]diazocin-5(14H)-one] | < 100
8 | CN1C(=O)c2cccc(OC(F)F)c2[C@H]2C[C@@H]1c1nc3cc(F)c(-c4ccc(P(C)(C)=O)c(F)c4F)cc3n12 [Example 55, (1R,11R)-18-(difluoromethoxy)-5-[4-(dimethylphosphoryl)-2,3-difluorophenyl]-6-fluoro-12-methyl-2,9,12-triazapentacyclo[9.8.1.0^{2,10}.0^{3,8}.0^{14,19}]icosa-3(8),4,6,9,14(19),15,17-heptaen-13-one] | < 100
9 | CN1C(=O)c2cccc(OC(F)F)c2[C@H]2C[C@@H]1c1nc3ccc(-c4cc(F)c(P(C)(C)=O)cc4F)cc3n12 [Example 56, (1R,11R)-18-(difluoromethoxy)-5-[4-(dimethylphosphoryl)-2,5-difluorophenyl]-12-methyl-2,9,12-triazapentacyclo[9.8.1.0^{2,10}.0^{3,8}.0^{14,19}]icosa-3(8),4,6,9,14(19),15,17-heptaen-13-one] | < 100
10 | CN1C(=O)c2cccc(OC(F)F)c2[C@H]2C[C@@H]1c1nc3cc(F)c(-c4ccc(P(C)(C)=O)c(F)c4)cc3n12 [Example 57, (1R,11R)-18-(difluoromethoxy)-5-[4-(dimethylphosphoryl)-3-fluorophenyl]-6-fluoro-12-methyl-2,9,12-triazapentacyclo[9.8.1.0^{2,10}.0^{3,8}.0^{14,19}]icosa-3(8),4,6,9,14(19),15,17-heptaen-13-one] | < 100
11 | CN1C(=O)c2cccc(OC(F)F)c2[C@H]2C[C@@H]1c1nc3cc(F)c(-c4ccc(P(C)(C)=O)cc4F)cc3n12 [Example 58, (1R,11R)-18-(difluoromethoxy)-5-[4-(dimethylphosphoryl)-2-fluorophenyl]-6-fluoro-12-methyl-2,9,12-triazapentacyclo[9.8.1.0^{2,10}.0^{3,8}.0^{14,19}]icosa-3(8),4,6,9,14(19),15,17-heptaen-13-one] | < 100
12 | [2H]C([2H])([2H])N1C(=O)c2cccc(OC(F)F)c2[C@H]2C[C@@H]1c1nc3cc(F)c(-c4ccc(P(C)(C)=O)c(F)c4)cc3n12 [Example 59, (7R,14R)-1-(difluoromethoxy)-11-(4-(dimethylphosphoryl)-3-fluorophenyl)-10-fluoro-6-(methyl-d3)-6,7-dihydro-7,14-methanobenzo[f]benzo[4,5]imidazo[1,2-a][1,4]diazocin-5(14H)-one] | < 100
13 | [2H]C([2H])([2H])N1C(=O)c2cccc(OC(F)F)c2[C@H]2C[C@@H]1c1nc3ccc(-c4cc(F)c(P(C)(C)=O)c(F)c4)cc3n12 [Example 60, (7R,14R)-1-(difluoromethoxy)-11-(4-(dimethylphosphoryl)-3,5-difluorophenyl)-6-(methyl-d3)-6,7-dihydro-7,14-methanobenzo[f]benzo[4,5]imidazo[1,2-a][1,4]diazocin-5(14H)-one] | < 100
14 | [2H]C([2H])([2H])N1C(=O)c2cccc(OC(F)F)c2[C@H]2C[C@@H]1c1nc3cc(F)c(-c4ccc(P(C)(C)=O)cc4F)cc3n12 [Example 61, (7R,14R)-1-(difluoromethoxy)-11-(4-(dimethylphosphoryl)-2-fluorophenyl)-10-fluoro-6-(methyl-d3)-6,7-dihydro-7,14-methanobenzo[f]benzo[4,5]imidazo[1,2-a][1,4]diazocin-5(14H)-one] | < 100
15 | CN1C(=O)c2cccc(OC(F)F)c2[C@H]2C[C@@H]1c1nc3ccc(-c4c(F)cc(P(C)(C)=O)cc4F)cc3n12 [Example 62, (1R,11R)-18-(difluoromethoxy)-5-[4-(dimethylphosphoryl)-2,6-difluorophenyl]-12-methyl-2,9,12-triazapentacyclo[9.8.1.0^{2,10}.0^{3,8}.0^{14,19}]icosa-3(8),4,6,9,14(19),15,17-heptaen-13-one] | < 100
16 | [2H]C([2H])([2H])N1C(=O)c2cccc(OC(F)F)c2[C@H]2C[C@@H]1c1nc3ccc(-c4c(F)cc(P(C)(C)=O)cc4F)cc3n12 [Example 63, (7R,14R)-1-(difluoromethoxy)-11-(4-(dimethylphosphoryl)-2,6-difluorophenyl)-6-(methyl-d3)-6,7-dihydro-7,14-methanobenzo[f]benzo[4,5]imidazo[1,2-a][1,4]diazocin-5(14H)-one] | < 100
